Assay results from the supplement of paper PMC11061612.

What was measured:
Experiment in all cases: Bliss excess, mean over the matrix (fraction); higher = more synergy
[1] = tested on: SBC-5 (Small Cell Lung Carcinoma)
Outline: (§1)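 Bliss excess equals the observed combination effect minus the expected value EA + EB − EA·EB, where EA and EB are the effects of each agent alone. Combination Emax is the second-highest inhibition within the matrix. Inhibition was scaled from CellTiter-Glo 2.0 luminescence, with 0 set by vehicle wells and 1 by blank wells, after 72 hours of two-drug dosing of cells plated in 1536-well plates.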

[2] = tested on: MDA-MB-175-VII (Breast Carcinoma)
Outline: as §1

[3] = tested on: BC-1 (B-Cell Non-Hodgkin's Lymphoma)
Outline: as §1

[4] = tested on: IGROV-1 (Ovarian Carcinoma)
Outline: as §1

[5] = tested on: TK (B-Cell Non-Hodgkin's Lymphoma)
Outline: as §1

[6] = tested on: NTERA-2-cl-D1 (Other Solid Carcinomas)
Outline: as §1

[7] = tested on: KNS-62 (Squamous Cell Lung Carcinoma)
Outline: as §1

[8] = tested on: NCI-H2170 (Squamous Cell Lung Carcinoma)
Outline: as §1

[9] = tested on: OCI-M1 (Acute Myeloid Leukemia)
Outline: as §1

[10] = tested on: HT-1197 (Bladder Carcinoma)
Outline: as §1

GCIY (Gastric Carcinoma) = tested on: GCIY (Gastric Carcinoma)
Outline: as §1

[11] = tested on: BT-474 (Breast Carcinoma)
Outline: as §1

MG-63 (Osteosarcoma) = tested on: MG-63 (Osteosarcoma)
Outline: as §1

[12] = tested on: SCC90 (Head and Neck Carcinoma)
Outline: as §1

[13] = tested on: HT-3 (Cervical Carcinoma)
Outline: as §1

[14] = tested on: SUP-HD1 (Hodgkin's Lymphoma)
Outline: as §1

[15] = tested on: ATN-1 (T-Lymphoblastic Leukemia)
Outline: as §1

[16] = tested on: SW1463 (Colorectal Carcinoma)
Outline: as §1

DK-MG (Glioblastoma) = tested on: DK-MG (Glioblastoma)
Outline: as §1

[17] = tested on: NCI-H1975 (Lung Adenocarcinoma)
Outline: as §1

Structure (SMILES) | Bliss excess [1] | Bliss excess [2] | Bliss excess [3] | Bliss excess [4] | Bliss excess [5] | Bliss excess [6] | Bliss excess [7] | Bliss excess [8] | Bliss excess [9] | Bliss excess [10] | Bliss excess (GCIY (Gastric Carcinoma)) | Bliss excess [11] | Bliss excess (MG-63 (Osteosarcoma)) | Bliss excess [12] | Bliss excess [13] | Bliss excess [14] | Bliss excess [15] | Bliss excess [16] | Bliss excess (DK-MG (Glioblastoma)) | Bliss excess [17]
COc1cccc2c1C(=O)c1c(O)c3c(c(O)c1C2=O)C[C@@](O)(C(=O)CO)C[C@@H]3O[C@H]1C[C@H](N)[C@H](O)[C@H](C)O1 [Doxorubicin] + Cc1cc2ncnn2cc1Nc1ncc2c(n1)n(C1CCOCC1)c(=O)n2C [AZD7648] (first compound max 1 µM, 7x7, partner max 10 µM) | 0.0341 | -0.0228 | 0.094 | 0.0222 | 0.0292 | 0.0426 | -0.0075 | 0.0706 | 0.102 | 0.0022 | 0.0606 | -0.0356 | 0.0908 | -0.0226 | 0.127 | 0.0727 | 0.0967 | -0.0363 | 0.0299 | 0.0542
CS(=O)(=O)CCNCc1ccc(-c2ccc3ncnc(Nc4ccc(OCc5cccc(F)c5)c(Cl)c4)c3c2)o1 [Lapatinib] + C[C@@H](Oc1cc(-c2cnn(C3CCNCC3)c2)cnc1N)c1c(Cl)ccc(F)c1Cl [Crizotinib] (first compound max 10 µM, 7x7, partner max 10 µM) | 0.0601 | -0.0129 | -0.0557 | -0.0518 | 0.0129 | -0.0579 | -0.0527 | -0.0026 | -0.0347 | -0.0307 | -0.003 | 0.0284 | -0.064 | 0.0827 | -0.0357 | -0.0579 | 0.0298 | 0.0138 | -0.0556 | -0.0428
CC(=O)c1c(C)c2cnc(Nc3ccc(N4CCNCC4)cn3)nc2n(C2CCCC2)c1=O [Palbociclib] + CC1(C)CCC(CN2CCN(c3ccc(C(=O)NS(=O)(=O)c4ccc(NCC5CCOCC5)c([N+](=O)[O-])c4)c(Oc4cnc5[nH]ccc5c4)c3)CC2)=C(c2ccc(Cl)cc2)C1 [Venetoclax] (first compound max 10 µM, 7x7, partner max 1 µM) | 0.0178 | -0.0174 | -0.0747 | 0.0026 | 0.0332 | -0.0389 | -0.0152 | 0.0227 | 0.007 | -0.042 | -0.0391 | -0.0444 | 0.0196 | -0.0435 | -0.0529 | -0.0641 | 0.0869 | -0.0899 | 0.0131 | -0.0254
CC(=O)c1c(C)c2cnc(Nc3ccc(N4CCNCC4)cn3)nc2n(C2CCCC2)c1=O [Palbociclib] + Cc1c2c(nn1C)CSCc1cc(n(C)n1)CSc1cc(c3ccccc3c1)OCCCc1c(C(=O)O)n(C)c3c-2c(Cl)ccc13 [AZD5991] (first compound max 10 µM, 7x7, partner max 1 µM) | -0.0171 | 0.0232 | -0.0028 | 0.0122 | -0.0191 | 0.019 | -0.0142 | -0.0189 | 0.033 | -0.0289 | -0.0198 | -0.0924 | 0.0096 | -0.0224 | -0.0751 | -0.0704 | -0.0498 | -0.0666 | -0.0018 | -0.0357
CC(=O)c1c(C)c2cnc(Nc3ccc(N4CCNCC4)cn3)nc2n(C2CCCC2)c1=O [Palbociclib] + Cn1cnc2c(F)c(Nc3ccc(Br)cc3Cl)c(C(=O)NOCCO)cc21 [Selumetinib] (first compound max 10 µM, 7x7, partner max 10 µM) | 0.0396 | -0.0013 | 0.0124 | 0.0255 | -0.0196 | -0.007 | 0.038 | -0.0284 | 0.0125 | -0.0257 | 0.0351 | -0.0418 | 0.0263 | -0.0058 | -0.0279 | -0.0414 | 0.0209 | 0.0128 | -0.0133 | -0.0041
COc1cccc(OCCCN)c1-c1cc(Nc2cnc(C#N)cn2)n[nH]1 [Prexasertib] + C=CCn1c(=O)c2cnc(Nc3ccc(N4CCN(C)CC4)cc3)nc2n1-c1cccc(C(C)(C)O)n1 [AZD1775] (first compound max 1 µM, partner max 1 µM) | 0.0356 | 0.106 | 0.0168 | -0.0343 | -0.0252 | 0.19 | 0.0697 | 0.101 | 0.0152 | -0.0589 | 0.0355 | -0.0223 | 0.141 | 0.0902 | 0.159 | 0.0009 | 0.0134 | 0.0656 | -0.0125 | 0.0404
COc1cccc(OCCCN)c1-c1cc(Nc2cnc(C#N)cn2)n[nH]1 [Prexasertib] + CCc1c2c(nc3ccc(O)cc13)-c1cc3c(c(=O)n1C2)COC(=O)[C@]3(O)CC [SN-38] (first compound max 1 µM, 7x7, partner max 0.3 µM) | 0.0007 | -0.0027 | -0.0226 | -0.0131 | 0.0138 | 0.0728 | -0.0385 | -0.0326 | -0.0042 | -0.0376 | -0.0379 | -0.0075 | -0.0315 | 0.127 | 0.0221 | -0.075 | 0.0005 | 0.0515 | -0.0146 | 0.108
COc1cccc(OCCCN)c1-c1cc(Nc2cnc(C#N)cn2)n[nH]1 [Prexasertib] + CN(C)CCCOc1ccc(-c2ccc3ncc4c(c3c2)n(C2CCOCC2)c(=O)n4C)cn1 [AZD0156] (first compound max 1 µM, 7x7, partner max 1 µM) | -0.0086 | -0.0173 | -0.0057 | -0.0283 | -0.0412 | 0.0083 | 0.0357 | 0.0156 | -0.0504 | -0.0183 | -0.0072 | 0.0023 | 0.0072 | -0.0634 | 0.0366 | -0.0442 | 0.0102 | -0.0265 | -0.0104 | 0.026
